Test results published in paper PMC11269756, “A ligand discovery toolbox for the WWE domain family of human E3 ligases” (Communications Biology, 2024).
Several values for one entry are separate records, joined by “and”; a condition that tells them apart may be missing. Identical values can stand only once. Entries after “also recorded” stand apart in the source; their conditions may differ.

Columns and labels:
Format in all cases: binding
RNF146 WWE domain = target: T1, RNF146 WWE domain (Homo sapiens, UniProt Q9NTX7); assay: 15N-HSQC NMR Kd titration, RNF146 WWE domain; conditions: 15N-HSQC-NMR titration, mean of selected cross peaks ± SD
T1 construct: RNF146 (Uniprot ID: Q9NTX7, residues 100-184); His6-TEV site (N, cleaved yes); made in house; host or cells: E. coli BL21 (DE3) pRARE2
T1 sequence (Q9NTX7 100-184): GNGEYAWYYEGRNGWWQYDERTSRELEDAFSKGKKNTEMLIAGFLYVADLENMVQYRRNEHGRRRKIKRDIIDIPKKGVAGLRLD

[1] = target: T2, TRIP12 WWE domain (isoform 2) (Homo sapiens, UniProt Q14669); assay: 15N-HSQC NMR Kd titration, TRIP12 WWE domain; conditions: 15N-HSQC-NMR titration, mean of selected cross peaks ± SD
T2 construct: TRIP12-2 (Uniprot ID: Q14669, residues 759–847); His6-TEV site (N, cleaved yes); made in house; host or cells: E. coli BL21 (DE3) pRARE2
Text: (§1) Protein-observed NMR using isotopically labeled proteins has emerged as one of the most sensitive and widely employed methods for fragment-based screening. Our objective was to generate ^15N-labeled proteins of WWE domain family members, thereby enabling ^15N-HSQC NMR studies. This approach provides a protein-based fragment screening assay to identify and orthogonally validate binders for the WWE domain family proteins. We conducted NMR-based Kd determination assays for HUWE1, DTX1, RNF146, TRIP12, and DTX2 (Fig. 2c–f, Fig. S3). The small size of the WWE domain constructs (10–20 kDa) yielded NMR spectra with well-resolved individual peaks when analyzed on a 600 MHz spectrometer. This facilitated the determination of Kd values for ligands in the fast-exchange regime by monitoring chemical shift perturbations in the ligand titration. […] The adenosine-based ligands were titrated in the range of 62.5 µM to 2 mM for each WWE domain protein. However, due to resource intensive preparation, iso-ADPr was only titrated up to 500 µM. We then plotted the Δδ chemical shifts and ligand concentrations to determine a saturation curve. For each Kd determination, the chemical shifts of at least two separate peaks were analyzed and reported as the mean with standard deviation (Table 1, Figs. S4–7).
(§2) Titration curves were calculated as previously described.

HUWE1 WWE domain [2] = target: T3, HUWE1 WWE domain (Homo sapiens, UniProt Q7Z6Z7); assay: 15N-HSQC NMR Kd titration, HUWE1 WWE domain; conditions: 15N-HSQC-NMR titration, mean of selected cross peaks ± SD
T3 construct: HUWE1 (Uniprot ID: Q7Z6Z7, residues 1611–1700); His6-TEV site (N, cleaved yes); made in house; host or cells: E. coli BL21 (DE3) pRARE2
T3 sequence (Q7Z6Z7 1611-1700): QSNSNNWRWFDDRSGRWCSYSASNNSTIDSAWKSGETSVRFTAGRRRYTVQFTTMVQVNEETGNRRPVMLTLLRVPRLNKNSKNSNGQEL
Text: as §1, §2
Compound hit confirmation was carried out in single compound samples using the same conditions and parameters as for compound mixtures.

DTX1 WWE domain = target: T4, DTX1 WWE domain (Homo sapiens, UniProt Q86Y01); assay: 15N-HSQC NMR Kd titration, DTX1 WWE domains; conditions: 15N-HSQC-NMR titration, mean of selected cross peaks ± SD
T4 construct: DTX1 (Uniprot ID: Q86Y01, residues 21–184); His6-TEV site (N, cleaved yes); made in house; host or cells: E. coli BL21 (DE3) pRARE2
T4 sequence (Q86Y01 21-184): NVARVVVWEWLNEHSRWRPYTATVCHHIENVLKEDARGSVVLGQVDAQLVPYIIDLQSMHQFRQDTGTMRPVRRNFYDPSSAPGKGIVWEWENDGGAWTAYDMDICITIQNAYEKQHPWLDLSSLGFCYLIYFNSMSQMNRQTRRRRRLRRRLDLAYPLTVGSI
Text: as §1, §2

DTX2 WWE domain [3] = target: T5, DTX2 WWE domain (Homo sapiens, UniProt Q86UW9); assay: 15N-HSQC NMR Kd titration, DTX2 WWE domains; conditions: 15N-HSQC-NMR titration, mean of selected cross peaks ± SD
T5 construct: DTX2 (Uniprot ID: Q86UW9, residues 3–189); His6-TEV site (N, cleaved yes); made in house; host or cells: E. coli BL21 (DE3) pRARE2
T5 sequence (Q86UW9 3-189): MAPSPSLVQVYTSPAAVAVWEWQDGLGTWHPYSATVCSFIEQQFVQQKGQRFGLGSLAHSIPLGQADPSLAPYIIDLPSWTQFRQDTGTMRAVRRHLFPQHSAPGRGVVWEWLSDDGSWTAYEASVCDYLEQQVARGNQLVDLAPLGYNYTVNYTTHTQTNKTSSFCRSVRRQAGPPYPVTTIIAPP
Text: as §1, §2

HUWE1 WWE domain [4] = target: T3, HUWE1 WWE domain; assay: 19F NMR displacement assay with 2F-ATP (1) reporter, HUWE1; conditions: 100 µM reporter, 0.5 µM protein, competitor up to 1 mM
DTX2 WWE domain [5] = target: T5, DTX2 WWE domain; assay: 19F NMR displacement assay with 2F-ATP (1) reporter, DTX2; conditions: 100 µM reporter, 0.5 µM protein, competitor up to 1 mM

T2 sequence (Q14669 with tags, fused parts or gaps): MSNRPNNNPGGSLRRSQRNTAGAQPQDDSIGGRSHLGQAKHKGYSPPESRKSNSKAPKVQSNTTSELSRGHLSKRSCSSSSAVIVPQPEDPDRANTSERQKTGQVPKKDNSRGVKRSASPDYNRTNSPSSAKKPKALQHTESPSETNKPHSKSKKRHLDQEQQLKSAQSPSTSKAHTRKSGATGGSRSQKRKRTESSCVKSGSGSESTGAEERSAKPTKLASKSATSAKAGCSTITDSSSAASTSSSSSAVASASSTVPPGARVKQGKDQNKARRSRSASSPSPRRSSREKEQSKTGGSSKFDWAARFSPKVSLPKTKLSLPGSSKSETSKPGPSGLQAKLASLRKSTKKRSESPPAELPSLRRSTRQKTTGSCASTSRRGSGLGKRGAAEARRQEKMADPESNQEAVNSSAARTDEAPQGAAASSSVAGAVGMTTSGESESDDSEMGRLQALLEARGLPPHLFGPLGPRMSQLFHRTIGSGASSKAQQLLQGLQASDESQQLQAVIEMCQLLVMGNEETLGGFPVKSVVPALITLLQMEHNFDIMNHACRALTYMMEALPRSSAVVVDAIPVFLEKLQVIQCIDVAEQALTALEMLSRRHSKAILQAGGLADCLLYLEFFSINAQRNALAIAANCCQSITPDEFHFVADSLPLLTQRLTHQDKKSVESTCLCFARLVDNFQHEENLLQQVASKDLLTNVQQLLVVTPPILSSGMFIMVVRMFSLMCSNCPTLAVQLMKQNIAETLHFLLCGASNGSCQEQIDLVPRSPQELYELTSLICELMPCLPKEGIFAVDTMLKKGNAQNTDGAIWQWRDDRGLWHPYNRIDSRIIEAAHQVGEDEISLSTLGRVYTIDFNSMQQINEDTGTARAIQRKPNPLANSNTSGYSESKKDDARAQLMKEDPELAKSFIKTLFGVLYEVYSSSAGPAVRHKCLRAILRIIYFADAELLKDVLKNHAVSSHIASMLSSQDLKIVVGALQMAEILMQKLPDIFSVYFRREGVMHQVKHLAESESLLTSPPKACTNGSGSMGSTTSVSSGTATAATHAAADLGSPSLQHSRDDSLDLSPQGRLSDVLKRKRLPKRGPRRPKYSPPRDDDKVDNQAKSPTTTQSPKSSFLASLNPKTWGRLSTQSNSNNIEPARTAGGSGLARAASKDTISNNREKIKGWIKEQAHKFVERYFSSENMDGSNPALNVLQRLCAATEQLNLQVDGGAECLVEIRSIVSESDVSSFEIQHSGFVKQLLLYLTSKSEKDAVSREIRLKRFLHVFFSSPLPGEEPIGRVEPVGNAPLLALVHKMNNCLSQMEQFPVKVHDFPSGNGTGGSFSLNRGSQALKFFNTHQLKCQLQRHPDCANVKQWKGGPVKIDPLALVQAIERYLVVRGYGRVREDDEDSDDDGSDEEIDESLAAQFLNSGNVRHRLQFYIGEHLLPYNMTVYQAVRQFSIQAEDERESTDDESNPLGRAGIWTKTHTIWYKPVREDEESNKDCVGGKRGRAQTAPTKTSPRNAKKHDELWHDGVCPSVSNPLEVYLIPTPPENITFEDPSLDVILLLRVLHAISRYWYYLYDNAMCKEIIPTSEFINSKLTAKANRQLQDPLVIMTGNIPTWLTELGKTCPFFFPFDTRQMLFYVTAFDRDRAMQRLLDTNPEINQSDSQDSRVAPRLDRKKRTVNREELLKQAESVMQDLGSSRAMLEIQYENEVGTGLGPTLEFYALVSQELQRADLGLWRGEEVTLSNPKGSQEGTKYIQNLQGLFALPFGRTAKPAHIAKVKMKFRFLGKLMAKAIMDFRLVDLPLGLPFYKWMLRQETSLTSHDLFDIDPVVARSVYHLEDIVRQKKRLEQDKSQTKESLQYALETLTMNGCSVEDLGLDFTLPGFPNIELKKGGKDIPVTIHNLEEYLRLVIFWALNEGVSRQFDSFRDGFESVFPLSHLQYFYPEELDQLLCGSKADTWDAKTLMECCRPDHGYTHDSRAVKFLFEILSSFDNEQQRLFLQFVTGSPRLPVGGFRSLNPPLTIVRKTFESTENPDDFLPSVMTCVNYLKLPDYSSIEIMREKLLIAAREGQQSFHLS

| Compound | Kd (RNF146 WWE domain) [µM] | Kd [1] [µM] | Kd (HUWE1 WWE domain [2]) | Kd (DTX1 WWE domain) [µM] | Kd (DTX2 WWE domain [3]) [µM] | displacement of 19F reporter 2F-ATP (1) (HUWE1 WWE domain [4]) | displacement of 19F reporter 2F-ATP (1) (DTX2 WWE domain [5]) |
| --- | --- | --- | --- | --- | --- | --- | --- |
| Nc1ncnc2c1ncn2[C@@H]1O[C@H](COP(=O)(O)OP(=O)(O)OP(=O)(O)O)[C@@H](O)[C@H]1F [2’F-ATP 2] | 114 ± 31 | 125 ± 20 | 15 ± 2 µM | 550 ± 111 | 455 ± 17 | – | – |
| O=C(O)CN1C(=O)c2ccccc2C1=O [compound (3), N-(Carboxymethyl)-phthalimide] | – | – | 1760 µM | – | – | no displacement | – |
| Nc1ncnc2c1ncn2[C@@H]1O[C@H](COP(=O)(O)OP(=O)(O)OP(=O)(O)O)[C@@H](O)[C@H]1O [ATP] | – | 316 ± 22 | 59 ± 5 µM | 659 ± 294 | 802 ± 84 | increasing signal intensity | too weak for displacement |
| Nc1nc(F)nc2c1ncn2[C@@H]1O[C@H](COP(=O)(O)OP(=O)(O)OP(=O)(O)O)[C@@H](O)[C@H]1O [2F-ATP 1] | 49 ± 18 | 127 ± 9 | 30 µM and 27 µM | 329 ± 115 | > 2000 | – | – |
| O=C(O)CN1C(=O)c2ccc(C(=O)O)cc2C1=O [compound (4)] | – | – | 202 µM | – | – | clear dose-dependent displacement; also recorded: showed displacement | – |
